Test results taken from patent publication US20150010928A1, “MEANS AND METHODS FOR ASSESSING AN ENDOCRINE DISEASE OR DISORDER” (priority 2012, published 2015).
Marks after values point to notes of the source that are not given here.

Test system: male rats
Assay: Plasma metabolite profiling (GC-MS, LC-MS, SPE-LC-MS) in male rats dosed once daily over 28 days (OECD 407)
Type: in vivo, rat
Parameters: key to erythro-Sphingoside (d18:1) / Tricosanoic acid (C23:0) / beta-Sitosterol / Tryptophan: ratio of treated group mean to untreated control group mean
How it was run: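 Metabolites were measured by GC-MS (derivatised) and reversed-phase LC-MS, with steroids by online SPE-LC-MS, in plasma drawn from fasted rats on days 7, 14 and 28 of once-daily dosing (5/sex/group). Values are ratios versus sex-matched untreated controls, normalized to pool samples, with Welch-test p-values.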

[1] = male rats, plasma, high dose, day 7
[2] = male rats, plasma, high dose, day 14
[3] = male rats, plasma, high dose, day 28
[4] = m7, male rats, high dose, Table 16

Cn1cc[nH]c1=S [Methimazole]
3-O-Methylsphingosine (d18:1) (m7, high dose, Table 10a): 3.59 *
5-O-Methylsphingosine (d18:1) (m7, high dose, Table 10a): 3.41 *
Cysteine (m7, high dose, Table 10a): 0.74^
Lignoceric acid (C24:0) (m7, high dose, Table 10a): 2.12 *
Nervonic acid (C24:cis[15]1) (m7, high dose, Table 10a): 2.59 *
Oleic acid (C18:cis[9]1) (m7, high dose, Table 10a): 0.95^
Stearic acid (C18:0) (m7, high dose, Table 10a): 1.34 *
alpha-Tocopherol (m7, high dose, Table 10a): 1.76 *
erythro-Sphingoside (d18:1) (m7, high dose, Table 10a): 2.91 *
threo-Sphingosine (d18:1) (m7, high dose, Table 10a): 2.91 *
Oleic acid (C18:cis[9]1) (m7, high dose, Table 10b): 0.95^
Thyroxine (T4) (m7, high dose, Table 10b): 0.11 *
trans-4-Hydroxyproline (m7, high dose, Table 10b): 0.85 *
3-O-Methylsphingosine (d18:1) (m14, high dose, Table 10a): 3.98 *
5-O-Methylsphingosine (d18:1) (m14, high dose, Table 10a): 4.75 *
Cysteine (m14, high dose, Table 10a): 1.25
Lignoceric acid (C24:0) (m14, high dose, Table 10a): 2.82 *
Nervonic acid (C24:cis[15]1) (m14, high dose, Table 10a): 3 *
Oleic acid (C18:cis[9]1) (m14, high dose, Table 10a): 0.97
Stearic acid (C18:0) (m14, high dose, Table 10a): 1.4 *
alpha-Tocopherol (m14, high dose, Table 10a): 2.66 *
erythro-Sphingoside (d18:1) (m14, high dose, Table 10a): 3.71 *
threo-Sphingosine (d18:1) (m14, high dose, Table 10a): 3.72 *
Oleic acid (C18:cis[9]1) (m14, high dose, Table 10b): 0.97^
Thyroxine (T4) (m14, high dose, Table 10b): 0.04 *
trans-4-Hydroxyproline (m14, high dose, Table 10b): 0.76 *
3-O-Methylsphingosine (d18:1) (m28, high dose, Table 10a): 4.59 *
5-O-Methylsphingosine (d18:1) (m28, high dose, Table 10a): 4.37 *
Cysteine (m28, high dose, Table 10a): 0.92^
Lignoceric acid (C24:0) (m28, high dose, Table 10a): 2.16 *
Nervonic acid (C24:cis[15]1) (m28, high dose, Table 10a): 2.23 *
Oleic acid (C18:cis[9]1) (m28, high dose, Table 10a): 0.87^
alpha-Tocopherol (m28, high dose, Table 10a): 2.18 *
erythro-Sphingoside (d18:1) (m28, high dose, Table 10a): 3.44 *
threo-Sphingosine (d18:1) (m28, high dose, Table 10a): 4.28 *
Oleic acid (C18:cis[9]1) (m28, high dose, Table 10b): 0.87 *
Phosphatidylcholine (C16:0, C16:0) (m28, high dose, Table 10b): 0.92 *
Thyroxine (T4) (m28, high dose, Table 10b): 0.02 *
trans-4-Hydroxyproline (m28, high dose, Table 10b): 0.92^
1,5-Anhydrosorbitol, ratio versus control [1]: 0.81 *
3-O-Methylsphingosine (d18:1), ratio versus control [1]: 3.59 *
5-O-Methylsphingosine (d18:1), ratio versus control [1]: 3.41 *
18-Hydroxy-11-deoxycorticosterone, ratio versus control [1]: 0.38 *
Behenic acid (C22:0), ratio versus control [1]: 2.19 *
Ceramide (d18:1, C24:0), ratio versus control [1]: 2.58 *
Ceramide (d18:1, C24:1), ratio versus control [1]: 1.88 *
Coenzyme Q9, ratio versus control [1]: 1.23
Corticosterone, ratio versus control [1]: 0.38 *
Docosapentaenoic acid (C22:cis[7, 10, 13, 16, 19]5), ratio versus control [1]: 1.16
Glucose, ratio versus control [1]: 1.02
Glycerol, polar fraction, ratio versus control [1]: 0.74 *
Isoleucine, ratio versus control [1]: 0.98
Lignoceric acid (C24:0), ratio versus control [1]: 2.12 *
Linolenic acid (C18:cis[9, 12, 15]3), ratio versus control [1]: 0.7 *
Nervonic acid (C24:cis[15]1), ratio versus control [1]: 2.59 *
Phytosphingosine, ratio versus control [1]: 2 *
Sphingomyelin (d18:1, C16:0), ratio versus control [1]: 2.24 *
Threonic acid, ratio versus control [1]: 0.72 *
Tricosanoic acid (C23:0), ratio versus control [1]: 1.93 *
alpha-Tocopherol, ratio versus control [1]: 2.26 *
erythro-Sphingosine (d18:1), ratio versus control [1]: 2.91 *
threo-Sphingosine (d18:1), ratio versus control [1]: 2.91 *
trans-4-Hydroxyproline, ratio versus control [1]: 0.85 *
1,5-Anhydrosorbitol, ratio versus control [2]: 0.98
3-O-Methylsphingosine (d18:1), ratio versus control [2]: 3.98 *
5-O-Methylsphingosine (d18:1), ratio versus control [2]: 4.75 *
18-Hydroxy-11-deoxycorticosterone, ratio versus control [2]: 0.82
Behenic acid (C22:0), ratio versus control [2]: 3.12 *
Ceramide (d18:1, C24:0), ratio versus control [2]: 2.83 *
Ceramide (d18:1, C24:1), ratio versus control [2]: 2.41 *
Choline plasmalogen (C18, C20:4), ratio versus control [2]: 1.45 *
Coenzyme Q9, ratio versus control [2]: 1.54 *
Corticosterone, ratio versus control [2]: 1.47 *
Docosapentaenoic acid (C22:cis[7, 10, 13, 16, 19]5), ratio versus control [2]: 1.17
Glucose, ratio versus control [2]: 1.11
Glycerol, polar fraction, ratio versus control [2]: 0.64 *
Isoleucine, ratio versus control [2]: 1.18 *
Lignoceric acid (C24:0), ratio versus control [2]: 2.82 *
Linolenic acid (C18:cis[9, 12, 15]3), ratio versus control [2]: 0.8 *
Nervonic acid (C24:cis[15]1), ratio versus control [2]: 3 *
Phosphatidylcholine (C18:0, C22:6), ratio versus control [2]: 0.97
Phytosphingosine, ratio versus control [2]: 3.12 *
Sphingomyelin (d18:1, C16:0), ratio versus control [2]: 2.27 *
Sphingomyelin (d18:1, C24:0), ratio versus control [2]: 1.64 *
Threonic acid, ratio versus control [2]: 0.69 *
Tricosanoic acid (C23:0), ratio versus control [2]: 2.69 *
alpha-Tocopherol, ratio versus control [2]: 3.65 *
erythro-Sphingosine (d18:1), ratio versus control [2]: 3.71 *
threo-Sphingosine (d18:1), ratio versus control [2]: 3.72 *
trans-4-Hydroxyproline, ratio versus control [2]: 0.76 *
1,5-Anhydrosorbitol, ratio versus control [3]: 1.06
3-O-Methylsphingosine (d18:1), ratio versus control [3]: 4.59 *
5-O-Methylsphingosine (d18:1), ratio versus control [3]: 4.37 *
18-Hydroxy-11-deoxycorticosterone, ratio versus control [3]: 0.24 *
Behenic acid (C22:0), ratio versus control [3]: 3.13 *
Ceramide (d18:1, C24:0), ratio versus control [3]: 2.72 *
Ceramide (d18:1, C24:1), ratio versus control [3]: 1.89 *
Coenzyme Q9, ratio versus control [3]: 2.14 *
Corticosterone, ratio versus control [3]: 0.63
Glycerol, polar fraction, ratio versus control [3]: 0.71 *
Isoleucine, ratio versus control [3]: 1.38 *
Lignoceric acid (C24:0), ratio versus control [3]: 2.16 *
Linolenic acid (C18:cis[9, 12, 15]3), ratio versus control [3]: 0.7 *
Nervonic acid (C24:cis[15]1), ratio versus control [3]: 2.23 *
Phosphatidylcholine (C18:0, C22:6), ratio versus control [3]: 1.22 *
Phytosphingosine, ratio versus control [3]: 3.11 *
Sphingomyelin (d18:1, C16:0), ratio versus control [3]: 1.92 *
Sphingomyelin (d18:1, C24:0), ratio versus control [3]: 1.41 *
Threonic acid, ratio versus control [3]: 0.69 *
Tricosanoic acid (C23:0), ratio versus control [3]: 2.5 *
alpha-Tocopherol, ratio versus control [3]: 2.04 *
erythro-Sphingosine (d18:1), ratio versus control [3]: 3.44 *
threo-Sphingosine (d18:1), ratio versus control [3]: 4.28 *
trans-4-Hydroxyproline, ratio versus control [3]: 0.92 *
Docosapentaenoic acid (C22:cis[7, 10, 13, 16, 19]5), ratio versus control (rat, in vivo): 1.24 *
Glucose, ratio versus control (rat, in vivo): 1.06 *
Phosphatidylcholine (C18:0, C22:6), ratio versus control (rat, in vivo): 1.17 *
Sphingomyelin (d18:1, C24:0), ratio versus control (rat, in vivo): 1.35 *
Stearic acid (C18:0) (rat, in vivo): 1.16 *

CC/C(=C(\c1ccccc1)c1ccc(OCCN(C)C)cc1)c1ccccc1 [Tamoxifen]
Cholesterol (m7, high dose, Table 14b): 0.45
Choline plasmalogen No 02 (m7, high dose, Table 14b): 0.59
Lignoceric acid (C24:0) (m7, high dose, Table 14b): 0.49
Sphingomyelin (d18:1, C16:0) (m7, high dose, Table 14b): 0.41
Sphingomyelin (d18:2, C16:0) (m7, high dose, Table 14b): 0.49
erythro-Sphingosine (d18:1) (m7, high dose, Table 14b): 0.28
Cholesterol (m14, high dose, Table 14b): 0.51
Choline plasmalogen No 02 (m14, high dose, Table 14b): 0.6
Lignoceric acid (C24:0) (m14, high dose, Table 14b): 0.63
Sphingomyelin (d18:1, C16:0) (m14, high dose, Table 14b): 0.63
Sphingomyelin (d18:2, C16:0) (m14, high dose, Table 14b): 0.52
erythro-Sphingosine (d18:1) (m14, high dose, Table 14b): 0.41
Cholesterol (m28, high dose, Table 14b): 0.51
Choline plasmalogen No 02 (m28, high dose, Table 14b): 0.68
Lignoceric acid (C24:0) (m28, high dose, Table 14b): 0.63
Sphingomyelin (d18:1, C16:0) (m28, high dose, Table 14b): 0.6
Sphingomyelin (d18:2, C16:0) (m28, high dose, Table 14b): 0.6
erythro-Sphingosine (d18:1) (m28, high dose, Table 14b): 0.42

CC1(C)CCC(=Cc2ccc(Cl)cc2)C1(O)Cn1cncn1 (stereo not drawn) [Triticonazole]
Glycerol, polar fraction [4]: 1.03
Testosterone [4]: 0.55 *
Testosterone (m14, male rats, high dose, Table 16): 1.03
Testosterone (m28, male rats, high dose, Table 16): 0.23 *

C=CC1(C)OC(=O)N(c2cc(Cl)cc(Cl)c2)C1=O (stereo not drawn) [Vinclozolin]
Testosterone (m7, high dose, Table 11a): 1.41^
Testosterone (m14, high dose, Table 11a): 2.44 *
Testosterone (m28, high dose, Table 11a): 1.09^
